US9938258B2 (Karyopharm Therapeutics Inc., priority 2012, dated 2018)
Where a name gives a salt, the structure may show the parent alone. Read-outs that look alike come from different tables or passages of the source.

Assays:
HL-60 cells = experiment: MTT cell proliferation assay, HL-60; type: cell-based; details: Homo sapiens, incubation approximately 64-72 hours
Procedure: (§1) The MTT cell proliferation assay was used to study the cytotoxic properties of the compounds. The assay was performed according to the method described by Roche Molecular Biochemicals, with minor modifications. The assay is based on the cleavage of the tetrazolium salt, MTT, in the presence of an electron-coupling reagent. The water-insoluble formazan salt produced must be solubilized in an additional step. Cells grown in a 96-well tissue culture plate were incubated with the MTT solution for approximately 4 hours. After this incubation period, a water-insoluble formazan dye formed. After solubilization, the formazan dye was quantitated using a scanning multi-well spectrophotometer (ELISA reader). […] The cells were seeded at 5,000-10,000 cells in each well of 96-well plate in 100 μL of fresh culture medium and were allowed to attach overnight. The stock solutions of the compounds were diluted in 100 μL cell culture medium to obtain eight concentrations of each test compound, ranging from 1 nM to 30 μM. […] All optical densities were measured at 490 nm using a Vmax Kinetic Microplate Reader (Molecular Devices). In most cases, the assay was performed in duplicate and the results were presented as a mean percent inhibition to the negative control±SE. The following formula was used to calculate the percent of inhibition: Inhibition (%)=(1-(ODo/OD)) ×100. […]

RPMI8226 cell line = experiment: MTT cell proliferation assay, RPMI8226; type: cell-based; details: Homo sapiens, RPMI-8226, incubation approximately 64-72 hours
Procedure: as §1

3T3 cells = experiment: MTT cell proliferation assay, 3T3; type: cell-based, mouse; details: Mus musculus
Summary of the method: (§2)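 Read-out: MTT reduction to formazan, solubilised and measured at 490 nm after ~4 h with MTT; inhibition (%) = (1-(ODo/OD))×100 relative to negative control. Seeding was 5,000-10,000 cells/well with overnight attachment. Eight test concentrations spanned 1 nM-30 μM; mostly duplicate, mean ± SE.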

Z138 cells = experiment: MTT cell proliferation assay, Z138; type: cell-based; details: Homo sapiens
Summary of the method: as §2

[1] = test system: PAK4 interactors and downstream proteins; experiment: Immunoblots of PAK4 interactors and downstream proteins in U2OS cells; type: cell-based, human; details: 72 hours
Procedure: Immunoblots were used to measure the effects of exemplary compounds on protein steady-state levels and phophorylation of PAK4 interactor and downstream proteins. Specifically, U2OS (osteosarcoma) cells were split and plated on day 1. After overnight attachment to the tissue culture plate, cells were treated with either DMSO (0), 37 nM, 111 nM, 333 nM, 1 μM, or 3 μM Compound 246 for 72 hours. Cells were collected, washed and lysed in RIPA buffer. After obtaining the protein concentration by BCA assay, lysates were boiled in loading buffer and run on SDS-PAGE. The gels were transferred to nitrocellulose membranes and blotted with antibodies raised against phosphor-PAK4, PAK4, phophos-beta-catenin, beta-catenin, GEF-H1, phospho-Akt, Akt, phospho-ERK1/2, ERK1/2, phospho-cofilin, cofilin, phospho-histone H3, histone H3, cyclin D1, Mcl-1, Bcl-2, p21, survivin, caspase 8, caspase 3, PARP, and beta-actin (loading control).
In another experiment, U2OS (osteosarcoma) cells were split and plated on day 1. After overnight attachment to the tissue culture plate, cells were treated with DMSO (Ct), 0.5 μM, or 5 μM of Compound 124, 369, 226, 246, or 907 for 72 hours. Cells were collected, washed and lysed in RIPA buffer. After obtaining the protein concentration by BCA assay, lysates were boiled in loading buffer and run on SDS-PAGE. The gels were transferred to nitrocellulose membranes and blotted with antibodies raised against phophos-beta-catenin, cyclin D1, PAK4, phospho-cofilin, and beta-actin (loading control).

HEP 3B cells = experiment: MTT cell proliferation assay, HEP 3B; type: cell-based; details: Homo sapiens, Hep3B, incubation approximately 64-72 hours
Procedure: (§3) The MTT cell proliferation assay was used to study the cytotoxic properties of the compounds. The assay was performed according to the method described by Roche Molecular Biochemicals, with minor modifications. The assay is based on the cleavage of the tetrazolium salt, MTT, in the presence of an electron-coupling reagent. The water-insoluble formazan salt produced must be solubilized in an additional step. Cells grown in a 96-well tissue culture plate were incubated with the MTT solution for approximately 4 hours. After this incubation period, a water-insoluble formazan dye formed. After solubilization, the formazan dye was quantitated using a scanning multi-well spectrophotometer (ELISA reader). […] The cells were seeded at 5,000-10,000 cells in each well of 96-well plate in 100 μL of fresh culture medium and were allowed to attach overnight. The stock solutions of the compounds were diluted in 100 μL cell culture medium to obtain eight concentrations of each test compound, ranging from 1 nM to 30 μM. […] All optical densities were measured at 490 nm using a Vmax Kinetic Microplate Reader (Molecular Devices). In most cases, the assay was performed in duplicate and the results were presented as a mean percent inhibition to the negative control±SE. The following formula was used to calculate the percent of inhibition: Inhibition (%)=(1-(ODo/OD)) ×100.
(§4) The M24 cell line is derived from human melanoma cells. The U2OS cell line is a human osteosarcoma cell line expressing wild type p53 and Rb, but lacking p16. The MM1S cell line is a multiple myeloma cell line; the parent cell line, MM.1, was established from peripheral blood of a multiple myeloma patient who had become resistant to steroid-based therapy. The RPMI8226 cell line is derived from human B lymphocyte cells. NHDF cells are normal human dermal fibroblast cells. The MRC-5 cell line is derived from normal lung tissue of a fetus. The LN18 cell line is a human malignant glioma cell line. The DU-145 cell line is a human prostate cancer cell line. A549 cells are human adenocarcinomic human alveolar basal epithelial cells. […]

M24 cell line = experiment: MTT cell proliferation assay, M24; type: cell-based; details: Homo sapiens, incubation approximately 64-72 hours
Procedure: as §1

U2OS cell line = experiment: MTT cell proliferation assay, U2OS; type: cell-based; details: Homo sapiens, incubation approximately 64-72 hours
Procedure: as §1

NHDF cells = experiment: MTT cell proliferation assay, NHDF; type: cell-based; details: Homo sapiens, incubation approximately 64-72 hours
Procedure: as §1

Hep G2 cells = experiment: MTT cell proliferation assay, Hep G2; type: cell-based; details: Homo sapiens, HepG2, incubation approximately 64-72 hours
Procedure: as §3
The M24 cell line is derived from human melanoma cells. The U2OS cell line is a human osteosarcoma cell line expressing wild type p53 and Rb, but lacking p16. The MM1S cell line is a multiple myeloma cell line; the parent cell line, MM.1, was established from peripheral blood of a multiple myeloma patient who had become resistant to steroid-based therapy. The RPMI8226 cell line is derived from human B lymphocyte cells. NHDF cells are normal human dermal fibroblast cells. The MRC-5 cell line is derived from normal lung tissue of a fetus. The LN18 cell line is a human malignant glioma cell line. The DU-145 cell line is a human prostate cancer cell line. A549 cells are human adenocarcinomic human alveolar basal epithelial cells. The MOLT4 cell line is a human acute lymphoblastic leukemia cell line. The THP1 cell line is a human leukemic monocytic cell line derived from peripheral blood. The OCIAML5 cell line is a human acute myeloid leukemia cell line. The MDA-MB-231 cell line is a human breast adenocarcinoma cell line. The MDA-MB-468 cell line is a human breast carcinoma cell line. HL-60 cells are human promyelocytic leukemia cells. Hep G2 cells are human hepatocellular carcinoma cells. HEP 3B cells are human hepatocellular carcinoma cells. The DLD-1 cell line is a colorectal adenocarcinoma cell line. The HCT-15 cell line is a human colon carcinoma cell line. The Colo-205 cell line is derived from a human adenocarcinoma of the colon. […]

MS751 cells = experiment: MTT cell proliferation assay, MS751; type: cell-based, human; details: Homo sapiens
Summary of the method: as §2

MM1S cell line = experiment: MTT cell proliferation assay, MM1S; type: cell-based; details: Homo sapiens, MM1.S, incubation approximately 64-72 hours
Procedure: as §3, §4

Structure (SMILES) | IC50 (HL-60 cells) [nM] | IC50 (RPMI8226 cell line) [nM] | IC50 (3T3 cells; NIH3T3, read-out: MTT Assay IC50, 3T3) [µM] | IC50 (Z138 cells; Z-138, read-out: MTT Assay IC50, Z138) [nM] | PAK4 total protein ([1]; 37 nM to 3 μM) | cleavage of apoptosis markers caspase 3, caspase 8 and PARP ([1]; 37 nM to 3 μM) | phosphorylation or total level of PAK4 signaling proteins (Akt, ERK1/2, beta-catenin, cofilin, p21, cyclin D1) ([1]; 37 nM to 3 μM) | PAK4 total protein ([1]; 0.5 μM or 5 μM) | phosphorylation of PAK4 signaling proteins beta-catenin and cofilin ([1]; 0.5 μM or 5 μM) | IC50 (HEP 3B cells) [nM] | IC50 (M24 cell line) [nM] | IC50 (U2OS cell line) [nM] | IC50 (NHDF cells) [nM] | IC50 (Hep G2 cells) [nM] | IC50 (MS751 cells; MS751, read-out: MTT Assay IC50, MS751) [nM] | IC50 (MM1S cell line) [nM] | IC50 (3T3 cells; NIH3T3, 3T3 cells, approximately 64-72 hours incubation, read-out: MTT Assay IC50, 3T3) [µM] | IC50 (Z138 cells; Z-138, Z138 cells, approximately 64-72 hours incubation, read-out: MTT Assay IC50, Z138) [nM] | IC50 (MS751 cells; MS751, MS751 cells, approximately 64-72 hours incubation, read-out: MTT Assay IC50, MS751) [nM]
Nc1ccc(/C=C/C(=O)NCC2Cc3cc(-c4ccc(C(=O)N5CCNCC5)cc4)cc(Cl)c3O2)cn1 (stereo not drawn) [Compound 246, (E)-3-(6-aminopyridin-3-yl)-N-((7-chloro-5-(4-(piperazine-1-carbonyl)phenyl)-2,3-dihydrobenzofuran-2-yl)methyl)acrylamide dihydrochloride] | 100 to 5000 | 100 to 5000 | 0.1 to 5 | < 100 | decrease | increases in cleavage | decrease in phosphorylation or the total level | decrease | decreases in phosphorylation | < 100 | 100 to 5000 | < 100 | 100 to 5000 | 100 to 5000 | < 100 | < 100 |  |  | 
Nc1ccc(CNC(=O)/C=C/C2Cc3cc(-c4ccc(C(=O)N5CCOCC5)cc4)cc(Cl)c3O2)cn1 (stereo not drawn) [Compound 907, (E)-N-((6-aminopyridin-3-yl)methyl)-3-(7-chloro-5-(4-(morpholine-4-carbonyl)phenyl)-2,3-dihydrobenzofuran-2-yl)acrylamide hydrochloride] |  |  |  |  |  |  |  | decrease | decreases in phosphorylation |  |  |  |  |  |  |  | 5 to 30 | < 100 | < 100
